pIC50: −log10 of the molar value.
Target: T1, full length G2019 human LRRK2 (Homo sapiens, UniProt Q5S007, R50H)
T1 construct: made in house; host or cells: HEK293 6E cells transduced with BacMam virus (virus generated in Sf9 cells)
Experiment: Full length G2019 human LRRK2 inhibition mass spectrometry assay
Format: biochemical
Settings: LRRKtide to phospho-LRRKtide conversion, RapidFire MS, 2 mM ATP
Experimental: a. Full Length G2019 Human LRRK2 Inhibition Mass Spectrometry Assay
This assay for Leucine Rich Repeat Kinase 2 (LRRK2) inhibition is based on the direct measurement of the peptide ‘LRRKtide’ (LRRKtide: RLGRDKYKT*LRQIRQ and “*” refers to the site of phosphorylation.) and phosphorylated ‘LRRKtide’ using a high throughput Rapid Fire mass spectrometry assay. Inhibitors are compounds that reduce the conversion of LRRKtide to phospho-LRRKtide.
• 1) Compounds were dissolved in 100% DMSO at a concentration of 10 mM, and 11-point dose response curves generated using a 1 in 4 serial dilution in DMSO. 100 nL of this dilution series was then added to a 384 well, v bottom polypropylene plate (Greiner 781280), excluding columns 6 and 18. 100 nL of DMSO were added to column 6 to serve as the high control, while column 18 served as the low control containing assay buffer in place of the LRRK2 protein. Assay dilution gave a top final assay concentration of test compound of […] • 2) 5 μL of ‘enzyme solution’ containing 2× final assay concentration of purified recombinant Full length Flag-LRRK2 in assay buffer (50 mM Hepes, pH 7.2, 10 mM MgCl2, 150 mM NaCl, 5% glycerol, 0.0025% Triton X-100 and 1 mM DTT) were added to all wells using a Multidrop Combi dispenser (ThermoFisher Scientifiec), giving a final assay concentration of 25 nM LRRK2 enzyme (final concentration may vary depending on specific activity of different enzyme batches). • 3) 5 μL of substrate solution containing 50 μM LRRKtide peptide substrate and […] was added to all wells of the plate using a Multidrop Combi dispenser giving a final assay concentration of 25 μM LRRKtide peptide and 2 mM ATP. Test plates were then incubated for 1 hour at room temperature. (Incubation may vary depending on rate and linearity of reaction with different enzyme batches). • 4) 50 μl of 1% formic acid in laboratory grade water was added to all wells to quench the reaction, and plates were heat-sealed prior to centrifugation at 1348×g for 10 minutes. Test plates were then analysed on an Agilent RapidFire High Throughput solid phase extraction system coupled to AB Sciex API 4000 triple quadropole mass spectrometer with the following setting:
• Sip Height=2 mm, Aspirate=500 ms, Load time=3000 ms, Elution time=3000 ms, Requilibration=500 ms. • Flow rates: pump 1=1.5 mL/min, pump 2 1.25 mL/min pump 3=0.8 mL/min
Mass Spectrometer Settings: • LRRKtide Detection settings: Q1 mass 644.8 Da, Q3 mass 638.8, declustering potential 76 volts, collision energy 37 volts, CXP 34 volts. • Phospho-LRRKtide Detection settings: Q1 mass 671.4 Da, Q3 mass 638.8, Declustering potential 76 volts, Collision energy 37 volts, CXP 34 volts. • A C4 cartridge was used and running buffers were: A (aqueous) 0.1% formic acid in water B (organic) 0.1% formic acid, 80% acetonitrile, 20% water. • Collision gas: 12, Curtain gas: 25, Ion Source gas (1): 60, Ion Source gas (2): 60, Ion Spray Voltage: 5500, Temperature: 600, Interface Heater: ON. • Resolution Q1: low, Resolution Q3: low. • 5) Data were analysed using ActivityBase software (IDBS). A percent conversion from LRRKtide to Phospho-LRRKtide was calculated using the following formula:
% conversion=(Phospho-LRRKtide product peak area/(Phospho-LRRKtide product peak area+LRRKtide substrate peak area))*100 • A logistic 4 parameter curve fit was applied, using the following formula,
[formula] • Where x is the concentration of test sample, y is inhibition (%), a is the minimum, b is the Hill slope, c is the IC50 and d is the maximum. From this, the pIC50 was derived (−log IC50).

T1 sequence (Q5S007 with tags, fused parts or gaps R50H): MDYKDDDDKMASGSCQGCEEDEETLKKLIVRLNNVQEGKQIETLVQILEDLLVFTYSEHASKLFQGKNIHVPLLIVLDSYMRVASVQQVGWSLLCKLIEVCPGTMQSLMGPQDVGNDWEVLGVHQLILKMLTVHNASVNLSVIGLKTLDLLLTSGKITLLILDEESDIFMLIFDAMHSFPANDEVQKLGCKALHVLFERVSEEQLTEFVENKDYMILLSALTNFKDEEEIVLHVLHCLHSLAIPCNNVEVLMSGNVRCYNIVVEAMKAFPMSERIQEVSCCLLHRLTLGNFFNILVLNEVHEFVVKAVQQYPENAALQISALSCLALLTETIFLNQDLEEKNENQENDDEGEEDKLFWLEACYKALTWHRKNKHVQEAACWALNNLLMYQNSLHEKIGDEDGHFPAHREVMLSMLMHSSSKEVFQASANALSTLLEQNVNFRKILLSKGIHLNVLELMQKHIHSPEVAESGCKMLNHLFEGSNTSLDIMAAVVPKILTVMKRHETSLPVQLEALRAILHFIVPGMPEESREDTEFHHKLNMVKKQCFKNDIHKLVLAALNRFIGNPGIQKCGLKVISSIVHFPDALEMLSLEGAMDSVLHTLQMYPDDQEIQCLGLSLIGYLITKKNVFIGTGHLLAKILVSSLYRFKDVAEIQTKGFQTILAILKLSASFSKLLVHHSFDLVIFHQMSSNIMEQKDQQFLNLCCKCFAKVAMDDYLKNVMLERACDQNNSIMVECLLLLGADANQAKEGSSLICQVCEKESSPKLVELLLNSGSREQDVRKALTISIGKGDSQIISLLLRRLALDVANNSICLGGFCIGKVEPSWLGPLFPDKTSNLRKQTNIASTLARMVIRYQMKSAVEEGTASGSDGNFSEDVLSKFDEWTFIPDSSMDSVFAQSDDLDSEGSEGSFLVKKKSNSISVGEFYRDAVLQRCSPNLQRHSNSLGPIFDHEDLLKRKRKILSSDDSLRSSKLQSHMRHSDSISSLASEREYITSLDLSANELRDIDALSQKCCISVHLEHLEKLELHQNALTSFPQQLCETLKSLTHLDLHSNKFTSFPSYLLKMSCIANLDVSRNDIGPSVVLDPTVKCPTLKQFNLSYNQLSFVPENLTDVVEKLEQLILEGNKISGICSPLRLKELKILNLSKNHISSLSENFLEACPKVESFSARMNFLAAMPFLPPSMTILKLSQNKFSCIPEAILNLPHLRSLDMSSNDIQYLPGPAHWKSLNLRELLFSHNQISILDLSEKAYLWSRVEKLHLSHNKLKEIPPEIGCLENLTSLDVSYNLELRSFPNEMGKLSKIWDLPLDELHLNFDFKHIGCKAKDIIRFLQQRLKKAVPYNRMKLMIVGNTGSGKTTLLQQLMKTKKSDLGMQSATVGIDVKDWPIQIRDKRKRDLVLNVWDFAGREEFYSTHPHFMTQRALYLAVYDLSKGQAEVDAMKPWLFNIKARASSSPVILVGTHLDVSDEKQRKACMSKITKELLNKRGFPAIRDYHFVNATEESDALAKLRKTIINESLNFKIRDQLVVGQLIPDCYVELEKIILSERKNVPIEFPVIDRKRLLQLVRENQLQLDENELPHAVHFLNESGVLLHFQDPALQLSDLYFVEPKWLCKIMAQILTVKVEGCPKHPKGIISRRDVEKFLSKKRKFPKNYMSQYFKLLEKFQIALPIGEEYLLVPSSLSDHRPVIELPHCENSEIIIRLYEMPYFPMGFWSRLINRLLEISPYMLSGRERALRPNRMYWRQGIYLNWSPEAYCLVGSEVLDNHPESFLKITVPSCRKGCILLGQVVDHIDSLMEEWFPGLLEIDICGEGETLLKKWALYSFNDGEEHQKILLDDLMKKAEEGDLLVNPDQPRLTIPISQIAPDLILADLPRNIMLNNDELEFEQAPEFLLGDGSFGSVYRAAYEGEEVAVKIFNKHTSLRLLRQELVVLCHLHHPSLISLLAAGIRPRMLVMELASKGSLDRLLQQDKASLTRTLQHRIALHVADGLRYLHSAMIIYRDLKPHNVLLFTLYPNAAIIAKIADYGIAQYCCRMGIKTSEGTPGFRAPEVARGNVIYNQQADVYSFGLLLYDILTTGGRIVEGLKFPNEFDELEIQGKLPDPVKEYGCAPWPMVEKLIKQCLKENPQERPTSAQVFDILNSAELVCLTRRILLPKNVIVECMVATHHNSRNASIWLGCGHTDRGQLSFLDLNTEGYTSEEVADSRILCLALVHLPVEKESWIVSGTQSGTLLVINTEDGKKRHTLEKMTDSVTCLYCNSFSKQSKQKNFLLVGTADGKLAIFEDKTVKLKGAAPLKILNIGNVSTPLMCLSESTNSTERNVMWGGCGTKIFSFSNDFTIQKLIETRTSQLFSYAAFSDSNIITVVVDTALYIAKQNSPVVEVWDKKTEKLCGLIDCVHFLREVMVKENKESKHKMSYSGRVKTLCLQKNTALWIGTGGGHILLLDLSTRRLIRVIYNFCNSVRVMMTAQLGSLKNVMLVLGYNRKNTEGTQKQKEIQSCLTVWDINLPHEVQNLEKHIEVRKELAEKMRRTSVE

Row | pIC50 | SMILES
1 | ≥ 7.00 | Cc1c2c(nn1C1CCOC1)OCCCNc1nc(ncc1Cl)N2 (single isomer, unassigned) [E124, 14-chloro-4-methyl-5-(oxolan-3-yl)-8-oxa-2,5,6,12,16,17-hexaazatricyclo[11.3.1.0^3,7]heptadeca-1(16),3,6,13(17), 14-pentaene]
2 | ≥ 5.00 | COC1CNc2nc(ncc2Cl)Nc2c(nn(C3COC3)c2C)OC1 (single isomer, unassigned) [E271, 14-Chloro-10-methoxy-4-methyl-5-(oxetan-3-yl)-8-oxa-2,5,6,12,16,17-hexaazatricyclo[11.3.1.0^3,7]heptadeca-1(16),3,6,13(17),14-pentaene]
3 | ≥ 7.00 | Cc1c2c(nn1C1CCN(C3COC3)CC1F)OCCCNc1nc(ncc1Cl)N2 (single isomer, unassigned) [E62, trans-14-chloro-5-[3-fluoro-1-(oxetan-3-yl)piperidin-4-yl]-4-methyl-8-oxa-2,5,6,12,16,17-hexaazatricyclo[11.3.1.0^3,7]heptadeca-1(16),3,6,13(17),14-pentaene]
4 | ≥ 7.00 | Cc1c2c(nn1C1CCOCC1C)OCCCNc1nc(ncc1Cl)N2 (single isomer, unassigned) [E141, 14-chloro-4-methyl-5-(3-methyloxan-4-yl)-8-oxa-2,5,6,12,16,17-hexaazatricyclo[11.3.1.0^3,7]heptadeca-1(16),3,6,13(17),14-pentaene]
5 | ≥ 7.00 | Cc1c2c(nn1C1CCOCC1(C)C)OCC[C@@H](C)Nc1nc(ncc1Cl)N2 (single isomer, unassigned) [E423]
6 | ≥ 7.00 | Cc1c2c(nn1C1CCOCC1)OCC(C)C(C)Nc1nc(ncc1Cl)N2 (single isomer, unassigned) [E31, 14-chloro-4,10,11-trimethyl-5-(oxan-4-yl)-8-oxa-2,5,6,12,16,17-hexaazatricyclo [11.3.1.0^3,7]heptadeca-1(16),3,6,13(17),14-pentaene]
7 | ≥ 5.00 | Cc1c2c(nn1C1CCOCC1)OCCC(CF)Nc1nc(ncc1Cl)N2 (single isomer, unassigned) [E53, 14-chloro-11-(fluoromethyl)-4-methyl-5-(oxan-4-yl)-8-oxa-2,5,6,12, 16,17-hexaazatricyclo[11.3.1.0^3,7]heptadeca-1(16),3,6,13(17),14-pentaene]
8 | ≥ 5.00 | Cc1c2c(nn1C(C)C1CCOCC1)OCCC(C)Nc1nc(ncc1Cl)N2 (single isomer, unassigned) [E182, 14-Chloro-4,11-dimethyl-5-[1-(oxan-4-yl)ethyl]-8-oxa-2,5,6,12,16,17-hexaazatricyclo[11.3.1.0^3,7]heptadeca-1(16),3,6,13(17),14-pentaene]
9 | ≥ 5.00 | Cc1c2c(nn1CCN1CCC(F)C1)OCCC(C)Nc1nc(ncc1Cl)N2 (single isomer, unassigned) [E217, 14-Chloro-5-[2-(3-fluoropyrrolidin-1-yl)ethyl]-4,11-dimethyl-8-oxa-2,5,6,12,16,17-hexaazatricyclo [11.3.1.0^3,7] heptadeca-1(16),3,6,13(17),14-pentaene]
10 | ≥ 5.00 | CCC1CCOc2nn(C3COC3)c(C)c2Nc2ncc(Cl)c(n2)N1 (single isomer, unassigned) [E319, 14-Chloro-11-ethyl-4-methyl-5-(oxetan-3-yl)-8-oxa-2,5,6,12,16,17-hexaazatricyclo[11.3.1.0^3,7]heptadeca-1(16), 3,6,13(17),14-pentaene]
11 | ≥ 7.00 | COCC1CCOc2nn(C3CCOCC3F)c(C)c2Nc2ncc(Cl)c(n2)N1 (single isomer, unassigned) [E352, 14-Chloro-5-(3-fluorooxan-4-yl)-11-(methoxymethyl)-4-methyl-8-oxa-2,5,6,12,16,17-hexaazatricyclo [11.3. 1.0^3,7]heptadeca-1(16),3,6,13(17),14-pentaene]
12 | ≥ 5.00 | Cc1c2c(nn1CC(C)(C)O)OCCCNc1nc(ncc1Cl)N2 [E263, 1-{14-Chloro-4-methyl-8-oxa-2,5,6,12,16,17-hexaazatricyclo [11.3.1.0^3,7]heptadeca-1(16),3,6,13(17),14-pentaen-5-yl}-2-methylpropan-2-ol]
13 | ≥ 5.00 | COC1CNc2nc(ncc2Cl)Nc2c(nn(C3CCC(C(F)(F)F)CC3)c2C)OC1 (single isomer, unassigned) [E279, 14-Chloro-10-methoxy-4-methyl-5-[4-(trifluoromethyl)cyclohexyl]-8-oxa-2,5,6,12,16,17-hexaazatricyclo [11.3. 1.0^3,7]heptadeca-1(16),3,6,13(17),14-pentaene]
14 | ≥ 7.00 | Cc1c2c(nn1C1CN(C3CCOCC3)C1)OC[C@@H](F)[C@@H](C)Nc1nc(ncc1Cl)N2 [E388, (10S, 11R)-14-Chloro-10-fluoro-4,11-dimethyl-5-[1-(oxan-4-yl)azetidin-3-yl]-8-oxa-2,5,6,12,16,17-hexaazatricyclo [11.3.1.0^3,7]heptadeca-1(16),3,6,13(17),14-pentaene]
15 | ≥ 7.00 | Cc1c2c(nn1C1CCOC(C)C1)OCCC(C)Nc1nc(ncc1Cl)N2 (single isomer, unassigned) [E84, 14-chloro-4,11-dimethyl-5-(2-methyloxan-4-yl)-8-oxa-2,5,6,12, 16,17-hexaazatricyclo[11.3.1.0^3,7]heptadeca-1(16),3,6,13(17),14-pentaene]
16 | ≥ 7.00 | Cc1c2c(nn1C1CCC(N3C[C@H]4C[C@@H]3CO4)CC1)OCCC(C)Nc1nc(ncc1Cl)N2 (single isomer, unassigned) [E58]
17 | ≥ 5.00 | COC1CNc2nc(ncc2C(F)(F)F)Nc2c(nn(C3CCCOC3)c2C)OC1 (single isomer, unassigned) [E228, 10-Methoxy-4-methyl-5-(oxan-3-yl)-14-(trifluoromethyl)-8-oxa-2,5,6,12,16,17-hexaazatricyclo [11.3.1.0^3,7] heptadeca-1(17),3,6,13,15-pentaene]
18 | ≥ 5.00 | Cc1c2c(nn1CCN1CCOCC1)OCCC(C)Nc1nc(ncc1Cl)N2 (single isomer, unassigned) [E212, 14-Chloro-4,11-dimethyl-5-[2-(morpholin-4-yl)ethyl]-8-oxa-2,5,6,12,16,17-hexaazatricyclo[11.3.1.0^3,7] heptadeca-1(16),3,6,13(17),14-pentaene]
19 | ≥ 7.00 | Cc1c2c(nn1C1(C(F)(F)F)CCOCC1)OCCCNc1nc(ncc1Cl)N2 [E418, 14-Chloro-4-methyl-5-[4-(trifluoromethyl)oxan-4-yl]-8-oxa-2,5,6,12,16,17-hexaazatricyclo[11.3.1.0^3,7]heptadeca-1(16),3,6,13(17),14-pentaene]
20 | ≥ 7.00 | C[C@@H]1CCOc2nn(C3CCN(C4COC4)CC3(F)F)c(Cl)c2Nc2ncc(Cl)c(n2)N1 (single isomer, unassigned) [E445]
21 | ≥ 7.00 | Cc1c2c(nn1C1CCC(N3C[C@@H]4C[C@H]3CO4)CC1)OCCC(C)Nc1nc(ncc1Cl)N2 (single isomer, unassigned) [E105]
22 | ≥ 7.00 | FC(F)(F)c1c2c(nn1C1CCOCC1)OCCCNc1nc(ncc1Cl)N2 [E424, 14-Chloro-5-(oxan-4-yl)-4-(trifluoromethyl)-8-oxa-2,5,6,12,16,17-hexaazatricyclo[11.3.1.0^3,7]heptadeca-1(16),3,6,13(17),14-pentaene]
23 | ≥ 5.00 | Cc1c2c(nn1C1CCC(C)CC1)OCCC(C)Nc1nc(ncc1Cl)N2 (single isomer, unassigned) [E261, 14-Chloro-4,11-dimethyl-5-(4-methylcyclohexyl)-8-oxa-2,5,6,12,16,17-hexaazatricyclo[11.3.1.0^3,7] heptadeca-1(16),3,6,13(17),14-pentaene]
